Paper PMC6769468, “Endogenous Neuropeptide Nocistatin Is a Direct Agonist of Acid-Sensing Ion Channels (ASIC1, ASIC2 and ASIC3)” (Biomolecules, 2019)
Ends that are not written are not given here.

Key:
rat ASIC1a [1] = biological target: T1, rat ASIC1a (Rattus norvegicus, UniProt P55926); assay: Whole-cell current activation, rat ASIC1a in X. laevis oocytes; assay type: cell-based; settings: for ASIC1a current amplitude, % of control pH 5.5 stimulus: n = 4
T1 construct: expressed in transfected cells; host or cells: Xenopus laevis oocytes (injected)
T1 sequence (P55926 1-526): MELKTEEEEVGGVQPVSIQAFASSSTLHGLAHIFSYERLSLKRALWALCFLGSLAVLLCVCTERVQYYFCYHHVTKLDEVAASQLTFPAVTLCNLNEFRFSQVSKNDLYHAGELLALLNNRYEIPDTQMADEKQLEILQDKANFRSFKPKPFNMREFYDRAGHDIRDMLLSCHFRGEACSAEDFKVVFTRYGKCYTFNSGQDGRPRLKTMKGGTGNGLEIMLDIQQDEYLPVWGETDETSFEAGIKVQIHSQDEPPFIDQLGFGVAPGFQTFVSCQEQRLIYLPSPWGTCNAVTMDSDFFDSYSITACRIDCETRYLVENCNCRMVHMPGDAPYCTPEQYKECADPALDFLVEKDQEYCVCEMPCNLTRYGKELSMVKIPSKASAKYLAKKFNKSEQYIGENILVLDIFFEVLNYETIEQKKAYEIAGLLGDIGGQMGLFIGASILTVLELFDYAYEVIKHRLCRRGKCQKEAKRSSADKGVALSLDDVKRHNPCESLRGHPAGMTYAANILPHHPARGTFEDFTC
Method: (§1) Oocytes expressed rASIC1a, rASIC1b, rASIC2a, and rASIC3 homomeric channels were prepared as described. Injected oocytes were kept for two–three days at 19 °C and then for up to seven days at 15 °C in ND-96 medium supplemented with gentamycin (50 μg·mL^−1) and containing (in mM): 96 NaCl, 2 KCl, 1.8 CaCl2, 1 MgCl2, and 10 HEPES titrated to pH 7.4 with NaOH. Electrophysiological recordings were performed using the GeneClamp500 amplifier (Axon Instruments, Inverurie, UK) at a holding potential of -50 mV. The data were filtered at 20 Hz and digitized at 100 Hz using the L780 AD converter (L-Card, Moscow, Russia). Microelectrodes were filled with 3 M KCl. The external bath solution was ND-96 with pH adjusted to 7.4/7.8 (10 mM HEPES) /8.5 (10 mM Tris). Nocistatin containing solutions were freshly prepared and buffered each experimental day in ND-96 bath solution (pH 7.4/7.8/8.5). Proton-activated currents through ASIC channels were elicited by application of ND-96, in which 10 mM of HEPES was substituted with 10 mM MES at pH 5.5/ 10 mM acetic acid at pH 4.5. The whole-cell recording was performed if a response to the control pH stimulus was stable in at least two replicates. Nocistatin-activated currents were elicited by application of nocistatin containing solutions with various concentrations of the peptide.
(§2) Extracellular solutions were applied using a computer-controlled valve system with a flow rate of 1 mL/min. The oocyte chamber volume was 80 µL. The validity of the application system for studying ASIC channels expressed in oocytes was confirmed in experiments by application of a Cl-free solution (containing (in mM): 130 NMDG, 1 MgGluc2, 2 KGluc, 5 HEPES) (pH 7.4). Fast application of proton/peptide-activating solution was performed at a flow rate of 1 mL/sec (the change of the bath solution occurred within 100 ms), followed by PC controlled flow stopping (from 5 to 15 s).
Analysis of electrophysiological data was performed using OriginPro 8.6 software (OriginLab, Northampton, MA, USA). Curves were fitted using different logistic equations:
(a) Usual logistic equation [33] F1(x) = A – A/(1 + (x/x0)^nH), where F1(x) is the current amplitude at nocistatin concentration x ([x]) (response at concentration x), A is the maximal current amplitude (or the maximum asymptote or the stabilized response for an infinite concentration), x0 is the value of [x] at which the function reach half their maximum value (the EC50 value), and nH is the Hill coefficient (slope factor or a level of cooperativity);
(b) Equation for the model of unequal sites occupation F2(x) = A/(1 + (x/EC501)^nH)*(1 + (x/EC502)), multiplication of two logistic equations where F2(x) is the current amplitude at nocistatin concentration x, A is the maximal current amplitude, [EC501] is the half-maximal concentration of nocistatin binding to pool of “cooperative” sites (or 0.5 probability of “cooperative” sites’ occupancy) and [EC502] is the half-maximal concentration of nocistatin binding to additional unequal site (or 0.5 probability of single site occupancy), and nH is the Hill coefficient (slope factor) for the pool of cooperative sites;
(d) The time course of curves’ decay was fitted using a mono-exponential equation: F4(x) = A1*e^(-x/τdes) + A0, where F4(x) is the current amplitude at the time point x, A1 is the maximal current amplitude, A0 is its steady-state value and τdes is the […].
(§3) All data are presented as mean ± SEM. The significance of normalized data differences was determined with a non-parametric Kruskal-Wallis ANOVA test with the significance level * p < 0.05 and ** p < 0.01; ns, non-significant.

rat ASIC1a [2] = biological target: T1, rat ASIC1a; assay: Inhibition of pH 5.5-induced ASIC1a current following rNS action; assay type: cell-based
Method: as §1, §2
(c) Generalized logistic differential equation (the four-parameter logistic nonlinear regression model or a Hill function) F3(x) = ((A1 – A2)/(1 + (x/x0)^nH)) + A2, where F3(x) is the response value at a given nocistatin concentration, x is the concentration of nocistatin; A1 is the control response value (fixed at 100%) or the minimum asymptote of the response when concentration = 0; A2 is the response value at maximal inhibition or the maximum asymptote or the stabilized response for an infinite concentration (% of control), x0 is the concentration at which 50% of the channels are expected to show the response (or the response halfway between the minimum response asymptote A1 and the maximum response asymptote A2) (IC50 value) and nH is the Hill coefficient (a level of cooperativity). The maximum amplitude (Imax) was calculated for each oocyte by individual fitting; the data were normalized to it, then the normalized data were averaged and fitted by the logistic equations F1(x) and F2(x).
as §3

[3] = amplitude of pH 5.5-induced current, F3, n = 5
[4] = pH 5.5 stimulus after 0.125–0.5 mM nocistatin pretreatment, n = 5

## MPRVRSVVQARDAEPEADAEPVADEADEVEQKQLQ [rNS]
Rat ASIC1a [1]; 1 mM nocistatin, conditioning pH 7.4
  ASIC1a current amplitude, % of control pH 5.5 stimulus: 95.5 ± 1.8%
Rat ASIC1a [1]; 1 mM nocistatin, conditioning pH 7.8
  ASIC1a current amplitude, % of control pH 5.5 stimulus: 89.5 ± 2.8%
Rat ASIC1a [1]; 1 mM nocistatin, conditioning pH 8.5
  ASIC1a current amplitude, % of control pH 5.5 stimulus: 86.7 ± 2.5%
Rat ASIC1a [1]; 1 mM nocistatin, extracellular pH 7.4
  Maximal activating effect versus response to a pH drop of 7.4–5.5: comparable to the response to a pH drop of 7.4–5.5
Rat ASIC1a [1]; 1 mM rNS vs pH drop 7.4–5.5
  Acurrent, nocistatin versus protons: did not differ between protons and nocistatin
  tmax, nocistatin versus protons: no differences
Rat ASIC1a [1]; 1 mM rNS, conditioning pH 7.4, mono-exponential fit, mean ± S.E. from 4–7 measurements
  τdes (desensitization time constant): 1.4 ± 0.1 s
Rat ASIC1a [1]; integral current, equation F2, n = 5
  Hill coefficient (nH), integral current activation: 4.8 ± 0.7
Rat ASIC1a [1]; peak amplitude, pH 7.4, equation F2, n = 5
  Hill coefficient (nH) of activation: 7.44 ± 0.95
Rat ASIC1a [2]; IC50 comparison
  Reduction of the 1st versus the 2nd component of the current: reduced the 1st component of the current twice as effectively
Rat ASIC1a [2]; [3]
  nH of inhibition, 1st component: 3.5 ± 0.4
  nH of inhibition, 2nd component: 1.9 ± 0.2
Rat ASIC1a [2]; integral of pH 5.5-induced current after nocistatin, F3
  nH, integral current inhibition: 2.9 ± 0.4
Rat ASIC1a [2]; integral of pH 5.5-induced current after nocistatin, F3 (fitted much worse than amplitude)
  IC50: 150 ± 20 µM
Rat ASIC1a [2]; low concentrations, Figure 2d and S2B
  Concentration at which nocistatin acts as an inhibitor: ≤ 0.2 mM
Rat ASIC1a [2]; [4]
  tmax1, 1st component of proton-induced current: 0.495 ± 0.085 s
  tmax2, 2nd component of proton-induced current: 1.415 ± 0.112 s
